Data from ChEMBL document CHEMBL4706632, “Development of Potential Antitumor Agents from the Scaffolds of Plant-Derived Terpenoid Lactones” (J Med Chem, 2020).

Key:
[1] = test system: CCRF-CEM; test: Cytotoxicity against human CEM cells incubated for 72 hrs by MTT assay; assay type: functional, cell-based
[2] = test system: HL-60; test: Cytotoxicity against human HL-60 cells incubated for 72 hrs by MTT assay; assay type: functional, cell-based; details: HL-60, 72 h
[3] = test system: Jurkat; test: Cytotoxicity against human Jurkat cells incubated for 72 hrs by MTT assay; assay type: functional, cell-based
[4] = test system: PANC-1; test: Cytotoxicity against human Panc-1 cells incubated for 48 hrs by CCK8 assay; assay type: functional, cell-based; details: PANC-1, 48 h
[5] = test system: HeLa; test: Antiproliferative activity against human HeLa cells; assay type: functional, cell-based
[6] = test system: HT-29; test: Antiproliferative activity against human HT-29 cells; assay type: functional, cell-based
[7] = test system: MDA-MB-231; test: Cytotoxicity against human MDA-MB-231 cells incubated for 72 hrs by MTT assay; assay type: functional, cell-based; details: MDA-MB-231, 72 h
[8] = test system: MCF7; test: Cytotoxicity against human MCF-7 cells incubated for 72 hrs by MTT assay; assay type: functional, cell-based; details: MCF7, 72 h
[9] = test system: HCT-116; test: Antiproliferative activity against human HCT-116 cells incubated for 72 hrs by WST-1 assay; assay type: functional, cell-based; details: HCT-116, 72 h
[10] = test system: HL-60; test: Antiproliferative activity against human HL-60 cells; assay type: functional, cell-based
[11] = test system: Bel-7402; test: Cytotoxicity against human Bel-7402 cells incubated for 24 hrs by MTS method; assay type: functional, cell-based; details: Bel-7402, 24 h
[12] = test system: HT-29; test: Cytotoxicity against human HT-29 cells incubated for 24 hrs by MTS method; assay type: functional, cell-based; details: HT-29, 24 h
[13] = Cytotoxicity against human MDA-Panc-28 cells incubated for 24 hrs by MTS method; assay type: functional, cell-based; details: MDA-Panc-28, 24 h
[14] = Suppression of ZEB1 protein level in human T-24 cells incubated for 24 hrs by Western blot analysis; assay type: functional, cell-based; details: T-24, 24 h
[15] = Inhibition of [3H]PAF-acether binding to PAFR in rabbit platelet plasma membranes incubated for 1 hr; assay type: cell membranes, Oryctolagus cuniculus, Cell membrane
[16] = Antiproliferative activity against human OVCA429 cells incubated for 72 hrs by MTT assay; assay type: functional, cell-based; details: OVCA429, 72 h
[17] = Inhibition of PAFR in New Zealand rabbit platelets assessed as reduction in PAF-induced platelet aggregation measured within 5 mins by aggregometry analysis; assay type: tissue-based; details: Oryctolagus cuniculus
[18] = test system: HeLa; test: Cytotoxicity against human HeLa cells incubated for 48 hrs by SRB assay; assay type: functional, cell-based
[19] = test system: IMR-32; test: Cytotoxicity against human IMR-32 cells incubated for 48 hrs by SRB assay; assay type: functional, cell-based; details: IMR-32, 48 h
[20] = test system: HepG2; test: Cytotoxicity against human HepG2 cells incubated for 48 hrs by SRB assay; assay type: functional, cell-based; details: HepG2, 48 h
[21] = test system: MCF7; test: Antiproliferative activity against human MCF7 cells by tetrazolium-based semiautomated colorimetric assay; assay type: functional, cell-based
[22] = test system: MCF7; test: Antiproliferative activity against human MCF7 cells incubated for 48 hrs by [3H]-thymidine incorporation assay; assay type: functional, cell-based
[23] = test system: SW480; test: Antiproliferative activity against human SW480 cells incubated for 72 hrs by MTT assay; assay type: functional, cell-based; details: SW480, 72 h
[24] = test system: MDA-MB-435; test: Antiproliferative activity against human MDA-MB-435 cells incubated for 48 hrs by [3H]-thymidine incorporation assay; assay type: functional, cell-based
[25] = test system: NCI-H446; test: Cytotoxicity against human NCI-H446 cells; assay type: functional, cell-based
[26] = test system: MCF7; test: Cytotoxicity against human MCF7 cells; assay type: functional, cell-based
[27] = test system: HeLa; test: Cytotoxicity against human HeLa cells; assay type: functional, cell-based
[28] = test system: MCF7; test: Cytotoxicity against human MCF7 cells incubated for 48 hrs by sulforhodamine B staining based spectrophotometric assay; assay type: functional, cell-based; details: MCF7, 48 h
[29] = test system: UACC-62; test: Cytotoxicity against human UACC-62 cells incubated for 48 hrs by sulforhodamine B staining based spectrophotometric assay; assay type: functional, cell-based; details: UACC-62, 48 h
[30] = test system: NCI-H1975; test: Antiproliferative activity against human NCI-H1975 cells incubated for 48 hrs by MTT assay; assay type: functional, cell-based; details: NCI-H1975, 48 h
[31] = test system: P388; test: Cytotoxicity against mouse P388 cells incubated for 48 hrs by MTT assay; assay type: functional, cell-based; details: P388, 48 h
[32] = test system: A549; test: Antiproliferative activity against human A549 cells incubated for 48 hrs by MTT assay; assay type: functional, cell-based; details: A549, 48 h
[33] = test system: P388; test: Antiproliferative activity against mouse P388 cells; assay type: functional, cell-based
[34] = test system: HCT-116; test: Cytotoxicity against human HCT-116 cells; assay type: functional, cell-based
[35] = test system: HT-29; test: Cytotoxicity against human HT-29 cells incubated for 48 hrs by MTT assay; assay type: functional, cell-based; details: HT-29, 48 h
[36] = test system: HL-60; test: Antiproliferative activity against human HL-60 cells incubated for 24 hrs by MTT assay; assay type: functional, cell-based; details: HL-60, 24 h
[37] = test system: A2058; test: Cytotoxicity against human A2058 cells incubated for 48 hrs by MTT assay; assay type: functional, cell-based; details: A2058, 48 h
[38] = test system: MCF7; test: Antiproliferative activity against human MCF7 cells incubated for 48 hrs by SRB assay; assay type: functional, cell-based; details: MCF7, 48 h
[39] = test system: MDA-MB-231; test: Cytotoxicity against human MDA-MB-231 cells incubated for 48 hrs by MTT assay; assay type: functional, cell-based; details: MDA-MB-231, 48 h
[40] = Cytotoxicity against human TSU-Pr1 cells incubated for 2 hrs; assay type: functional, cell-based; details: TSU-Pr1, 2 h
[41] = test system: CCRF S-180; test: Cytotoxicity against mouse CCRF S-180 cells incubated for 48 hrs by sulforhodamine B staining based ELISA; assay type: functional, cell-based; details: CCRF S-180, 48 h
[42] = test system: LNCaP; test: Cytotoxicity against human LNCAP cells incubated for 48 hrs clonogenic survival assay; assay type: functional, cell-based; details: time 48 hrs, read-out: LD50 (the source's name)
[43] = test system: EL4; test: Cytotoxicity against mouse EL4 cells incubated for 48 hrs by sulforhodamine B staining based ELISA; assay type: functional, cell-based; details: EL4, 48 h
[44] = biological target: Sarcoplasmic/endoplasmic reticulum calcium ATPase 1 (Oryctolagus cuniculus, UniProt P04191); test: Inhibition of rabbit skeletal muscle SERCA1 assessed as reduction in calcium uptake preincubated for 10 mins followed by ATP addition and measured after 4 mins by scintillation liquid method
[45] = test system: MCF7; test: Cytotoxicity against human MCF7 cells incubated for 48 hrs by sulforhodamine B staining based ELISA; assay type: functional, cell-based; details: MCF7, 48 h

Sarcoplasmic/endoplasmic reticulum calcium ATPase 1, sequence (P04191 whole entry): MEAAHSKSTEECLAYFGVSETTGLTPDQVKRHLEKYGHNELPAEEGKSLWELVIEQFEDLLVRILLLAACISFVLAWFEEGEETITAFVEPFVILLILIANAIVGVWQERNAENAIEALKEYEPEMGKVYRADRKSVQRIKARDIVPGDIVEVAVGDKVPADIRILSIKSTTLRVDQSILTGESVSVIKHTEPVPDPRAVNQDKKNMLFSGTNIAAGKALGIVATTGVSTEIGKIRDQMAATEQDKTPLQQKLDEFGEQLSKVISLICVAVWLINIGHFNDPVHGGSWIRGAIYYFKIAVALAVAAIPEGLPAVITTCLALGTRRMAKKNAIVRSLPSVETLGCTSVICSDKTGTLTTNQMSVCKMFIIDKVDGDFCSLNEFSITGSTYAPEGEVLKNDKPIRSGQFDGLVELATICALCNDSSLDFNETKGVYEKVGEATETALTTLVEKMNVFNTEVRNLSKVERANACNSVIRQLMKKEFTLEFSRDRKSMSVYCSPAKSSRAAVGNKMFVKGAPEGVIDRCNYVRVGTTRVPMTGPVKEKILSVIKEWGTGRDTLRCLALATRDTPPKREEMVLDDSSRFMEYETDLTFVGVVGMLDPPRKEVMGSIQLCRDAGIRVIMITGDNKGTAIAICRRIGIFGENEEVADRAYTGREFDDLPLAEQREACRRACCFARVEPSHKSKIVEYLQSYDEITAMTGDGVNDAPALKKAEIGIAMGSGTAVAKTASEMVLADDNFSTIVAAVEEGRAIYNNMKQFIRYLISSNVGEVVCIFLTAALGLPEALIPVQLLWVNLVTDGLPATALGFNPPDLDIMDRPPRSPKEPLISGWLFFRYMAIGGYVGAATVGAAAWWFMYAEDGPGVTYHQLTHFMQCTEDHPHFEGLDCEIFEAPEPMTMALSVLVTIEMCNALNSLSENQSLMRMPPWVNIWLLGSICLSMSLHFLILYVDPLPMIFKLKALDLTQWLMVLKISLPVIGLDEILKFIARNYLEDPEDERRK

CC(=O)O[C@@]1(C)COC2(C1)OC(=O)[C@H]([C@@H]1CC[C@]34C[C@]13C=C[C@@H]1[C@@]3(C)CC=C5C[C@@H](Cc6ccccc6)OC[C@]5(C)[C@@H]3C[C@@H](O)[C@]14C)[C@H]2O (stereo not given in full)
IC50 [1]: 24000 nM | IC50 [2]: 30000 nM | IC50 [3]: 2700 nM

CC(C)[C@]12O[C@H]1[C@@H]1O[C@]13[C@]1(O[C@H]1C[C@H]1C4=C(CC[C@@]13C)C(=O)OC4)[C@@H]2OCOP(=O)(O)O [MINNELIDE]
IC50 [4]: 200 nM

COC(=O)[C@@]12OC[C@]34[C@H]([C@@H](O)[C@@H]1O)[C@@]1(C)CC(=O)C(O)=C(C)[C@@H]1C[C@H]3OC(=O)[C@H](OC(=O)CC(C)C)[C@@H]24 [BRUCEINE A]
IC50 [5]: 1100 nM | IC50 [6]: 3100 nM | IC50 [7]: 230 nM | IC50 [8]: 180 nM | IC50 [9]: 82 nM | IC50 [10]: 130 nM

CC(O)CC(=O)O[C@@]1(C)CO[C@@]2(C1)OC(=O)[C@H]([C@@H]1CC[C@]34C[C@]13C=C[C@@H]1[C@@]3(C)CC=C5C[C@@H](Cc6ccccc6)OC[C@]5(C)[C@@H]3C[C@@H](O)[C@]14C)[C@H]2O (stereo not given in full)
IC50 [1]: 3100 nM | IC50 [2]: 5600 nM | IC50 [3]: 1800 nM

CO[C@@]12OC(=O)C(CO)=C1[C@H]1O[C@]13CC[C@@H]1C(C)(C)CCC[C@@]1(C)[C@@H]3[C@H]2O
IC50 [11]: > 50000 nM | IC50 [12]: > 50000 nM | IC50 [13]: > 50000 nM

C[C@@H]1C(=O)O[C@H]2[C@H](O)[C@@]34[C@H]5C[C@@H](C(C)(C)C)[C@]36[C@@H](OC(=O)[C@@H]6O)O[C@@]4(C(=O)O5)[C@@]12O [GINKOLIDE B]
IC50 [14]: 500 nM | IC50 [15]: 250 nM | IC50 [16]: > 50000 nM | IC50 [17]: 130 nM

CC(C)[C@]12O[C@H]1[C@@H]1O[C@]13[C@]1(O[C@H]1C[C@H]1C4=C(CC[C@@]13C)C(=O)OC4)[C@@H]2O [TRIPTOLIDE]
IC50 [4]: 200 nM

C=C1[C@@H]2CC[C@@]3(C)[C@H](c4ccoc4)OC(=O)C[C@]13O[C@H]1C[C@H](OC(=O)CN3CCN(C(=O)c4ccccc4)CC3)C(C)(C)[C@H](CC(=O)OC)[C@]12C
IC50 [18]: 14000 nM | IC50 [19]: > 100000 nM | IC50 [20]: 10 nM

C[C@H]1[C@@H](CCC(=O)NCC[C@H]2O[C@@H]3O[C@]4(C)CC[C@H]5[C@H](C)CC[C@@H]([C@H]2C)[C@@]35OO4)O[C@@H]2O[C@@]3(C)CC[C@H]4[C@H](C)CC[C@@H]1[C@@]24OO3
IC50 [21]: 8 nM

CC1(C)OC(=O)C=C[C@]2(C)[C@H]3CC[C@@](C)([C@@H](O[C@H]4O[C@H](CO)[C@@H](O)[C@H](O)[C@H]4O)c4ccoc4)[C@@]4(O[C@@H]4C(=O)O)[C@]3(C)C(=O)C[C@@H]12
IC50 [22]: 3200 nM | IC50 [23]: 60000 nM | IC50 [24]: 10000 nM

C[C@@]12[C@H](O)C=C[C@]3(C)C(=O)O[C@H](C=C4COC(=O)C[C@H]41)[C@H]23
IC50 [25]: 16000 nM | IC50 [26]: 11000 nM | IC50 [27]: 10000 nM

CC(=O)O[C@H]1C=C2C(=O)C3=C(C)C(=O)O[C@@H]3C[C@H]2[C@]2(C)CCCC(C)(C)[C@@H]12
IC50 [28]: 130 nM | IC50 [29]: 80 nM

COC(=O)[C@@]12OC[C@]34[C@H]([C@@H](O)[C@@H]1O)[C@@]1(C)CC(=O)C(O)=C(C)[C@@H]1C[C@H]3OC(=O)[C@H](OC(=O)/C=C(\C)C(C)C)[C@@H]24 [BRUCEANTIN]
IC50 [5]: 29 nM | IC50 [6]: 22 nM

CC(C)[C@H]1OC(=O)C=C2[C@@]13O[C@@H]3[C@H]1OC(=O)[C@@]3(C)[C@@H](O)CC[C@@]2(C)[C@@H]13
IC50 [30]: 3600 nM | IC50 [31]: 720 nM | IC50 [32]: 5200 nM

C=C1CC[C@@H]2[C@](C)(CO)[C@H](O)CC[C@@]2(C)[C@@H]1C/C=C1/C(=O)OC[C@H]1O [ANDROGRAPHOLIDE]
IC50 [33]: 2900 nM | IC50 [34]: > 40000 nM | IC50 [35]: > 30000 nM | IC50 [36]: 2400 nM | IC50 [37]: 26000 nM | IC50 [38]: 15000 nM | IC50 [39]: > 30000 nM | IC50 [10]: 7000 nM

CC1(C)OC(=O)C=C[C@]2(C)[C@H]3CC[C@@]4(C)[C@H](c5ccoc5)OC(=O)[C@H]5O[C@]54[C@]3(C)C(=O)C[C@@H]12 [OBACUNONE]
IC50 [22]: 20 nM | IC50 [23]: 56000 nM | IC50 [24]: 6800 nM

C/C=C(/C)C(=O)O[C@H]1C(C)=C2[C@H]([C@@H]1OC(=O)CCCCCCC)[C@@](C)(OC(C)=O)C[C@H](OC(=O)CCC)[C@@]1(O)[C@H]2OC(=O)[C@@]1(C)O [THAPSIGARGIN]
IC50 [40]: 30 nM | IC50 [41]: 30 nM | CC50 [42]: 10 nM | IC50 [43]: 100 nM | IC50 [44]: 3.9 nM | IC50 [45]: 2300 nM
